Molecules are shown by their SMILES. Counter-ions that a name gives are not always drawn.

The record followed here is patent US10988449B2, “Isoxazole derivatives as nuclear receptor agonists and uses thereof” (IL DONG PHARMACEUTICAL CO., LTD., priority 2017, dated 2021).

Data set [1] in a line: Mouse pharmacokinetics. It is filed as in vivo. The arrangement: concentration or dose not given beside the values. To be noted: mouse; Balb/c male mice; blood samples 15 to 1140 min; LC-MS/MS; read-out: AUC. On the procedure:
To evaluate the pharmacokinetics test, the invented 18 compounds of examples were determined as follows. Blood samples are collected at 15, 30, 60, 120, 240, 480, 1140 min. Quantification is by using a LC-MS/MS method specific to the selected compound. Pharmacokinetics parameters are calculated using WinNonLinnon compartmental analysis software.

For data set [2], the target named is T1, human FXR (Homo sapiens, UniProt Q96RI1).
T1 construct: expressed in transfected cells
T1 sequence (Q96RI1 1-486): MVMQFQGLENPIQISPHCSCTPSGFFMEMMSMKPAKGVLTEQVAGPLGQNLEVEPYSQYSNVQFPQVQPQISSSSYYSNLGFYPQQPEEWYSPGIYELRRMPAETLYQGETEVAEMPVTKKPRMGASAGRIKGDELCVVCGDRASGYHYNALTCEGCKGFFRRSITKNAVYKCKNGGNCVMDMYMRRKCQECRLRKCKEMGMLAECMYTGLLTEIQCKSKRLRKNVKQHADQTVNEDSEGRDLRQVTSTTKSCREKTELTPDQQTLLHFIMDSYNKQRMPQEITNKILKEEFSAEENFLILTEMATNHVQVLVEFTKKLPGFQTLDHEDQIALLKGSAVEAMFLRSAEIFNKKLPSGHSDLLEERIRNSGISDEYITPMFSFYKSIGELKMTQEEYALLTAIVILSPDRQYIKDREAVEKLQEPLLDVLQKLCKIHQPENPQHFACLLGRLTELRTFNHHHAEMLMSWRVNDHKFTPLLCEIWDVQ
Kind of data set: FXR reporter assay (cellular FXR activities). It is filed as cell-based. To be noted: for EC50: FXR reporter cells, 24 hours incubation, luciferase, read-out: Reporter Cell EC50; for Emax: read-out: Emax (%) (GW4064 Emax = 100%). In short, it runs like this: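 Reporter cells overexpressing human FXR exposed to compound dilutions for 24 h at 37 °C, 5% CO2. Luciferase signal used to calculate EC50.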
(In a reporter assay the amount or activity of a reporter protein is the signal.)

Take `O=C(O)c1cccc(C#Cc2ccc(OCc3c(-c4c(Cl)cccc4Cl)noc3C3CC3)cc2)c1` [Compound I-2, 3-((4-((5-cyclopropyl-3-(2,6-dichlorophenyl)isoxazol-4-yl)methoxy)phenyl)ethynyl)benzoic acid]: the area under the curve (AUC) in data set [1] worked out at 277 ng·h/mL. Besides, in data set [2], the EC50 is above 1000 nM and the maximum response (Emax) was above 100%.
With `CC(C)NCCCn1ccc2c(C#Cc3ccc(OCc4c(-c5c(Cl)cccc5Cl)noc4C4CC4)cc3Cl)cc(C(=O)O)cc21` [Compound I-93, 4-((2-chloro-4-((5-cyclopropyl-3-(2,6-dichlorophenyl)isoxazol-4-yl)methoxy)phenyl)ethynyl)-1-(3-(isopropylamino)propyl)-1H-indole-6-carboxylic acid], in data set [2], the EC50 is 200 to 1000 nM and the maximal effect (Emax) was found to be 82%.
For the compound `O=C(O)c1cc(C#Cc2ccc(OCc3c(-c4c(Cl)cccc4Cl)noc3C3CC3)cc2Cl)c2ccn(Cc3ccncc3)c2c1` [Compound I-94, 4-((2-chloro-4-((5-cyclopropyl-3-(2,6-dichlorophenyl)isoxazol-4-yl)methoxy)phenyl)ethynyl)-1-(pyridin-4-ylmethyl)-1H-indole-6-carboxylic acid], in data set [2], the EC50 was 60 to 200 nM and the maximal response (Emax) was above 100%.
Take `O=C(O)c1cc(C#Cc2ccc(OCc3c(-c4c(Cl)cccc4Cl)noc3C3CC3)cc2Cl)c2ccn(CCN3CCOCC3)c2c1` [Compound I-95, 4-((2-chloro-4-((5-cyclopropyl-3-(2,6-dichlorophenyl)isoxazol-4-yl)methoxy)phenyl)ethynyl)-1-(2-morpholinoethyl)-1H-indole-6-carboxylic acid hydrochloride]: in data set [2], the EC50 was 20 to 60 nM and the Emax was above 100%.
`COC(Cn1ccc2c(C#Cc3ccc(OCc4c(-c5c(Cl)cccc5Cl)noc4C4CC4)cc3Cl)cc(C(=O)O)cc21)OC` [Compound I-96, 4-((2-chloro-4-((5-cyclopropyl-3-(2,6-dichlorophenyl)isoxazol-4-yl)methoxy)phenyl)ethynyl)-1-(2,2-dimethoxyethyl)-1H-indole-6-carboxylic acid]: in data set [2], the half-maximal effective concentration (EC50) is at most 20 nM and the Emax is 98%.
For `O=C(O)c1cc(C#Cc2ccc(OCc3c(-c4c(Cl)cccc4Cl)noc3C3CC3)cc2Cl)c2ccn(CCO)c2c1` [Compound I-97, 4-((2-chloro-4-((5-cyclopropyl-3-(2,6-dichlorophenyl)isoxazol-4-yl)methoxy)phenyl)ethynyl)-1-(2-hydroxyethyl)-1H-indole-6-carboxylic acid], in data set [2], the EC50 was at most 20 nM and the Emax was found to be 94%.
For the compound `CC(C)(O)Cn1ccc2c(C#Cc3ccc(OCc4c(-c5c(Cl)cccc5Cl)noc4C4CC4)cc3Cl)cc(C(=O)O)cc21` [Compound I-98, 4-((2-chloro-4-((5-cyclopropyl-3-(2,6-dichlorophenyl)isoxazol-4-yl)methoxy)phenyl)ethynyl)-1-(2-hydroxy-2-methylpropyl)-1H-indole-6-carboxylic acid], in data set [2], the EC50 is 20 to 60 nM and the maximal effect (Emax) was above 100%.
For the compound `O=C(O)c1cc(C#Cc2ccc(OCc3c(-c4c(Cl)cccc4Cl)noc3C3CC3)cc2Cl)cc2c1OCC2` [Compound I-100, 5-((2-chloro-4-((5-cyclopropyl-3-(2,6-dichlorophenyl)isoxazol-4-yl)methoxy)phenyl)ethynyl)-2,3-dihydrobenzofuran-7-carboxylic acid], in data set [2], the half-maximal effective concentration (EC50) was in the range of 60 to 200 nM and the Emax was above 100%.
The matching figures for `O=C(O)c1cc(C#Cc2ccc(OCc3c(-c4c(Cl)cccc4Cl)noc3C3CC3)cc2Cl)cc2[nH]ccc12` [Compound I-101, 6-((2-chloro-4-((5-cyclopropyl-3-(2,6-dichlorophenyl)isoxazol-4-yl)methoxy)phenyl)ethynyl)-1H-indole-4-carboxylic acid]: at most 20 nM and 97%.
In the same order, the values of `O=C(O)c1cc(C#Cc2ccc(OCc3c(-c4c(Cl)cccc4Cl)noc3C3CC3)cc2Cl)cc2ncoc12` [Compound I-102, 5-((2-chloro-4-((5-cyclopropyl-3-(2,6-dichlorophenyl)isoxazol-4-yl)methoxy)phenyl)ethynyl)benzo[d]oxazole-7-carboxylic acid] are 200 to 1000 nM and above 100%.
As for `Cc1nc2cc(C#Cc3ccc(OCc4c(-c5c(Cl)cccc5Cl)noc4C4CC4)cc3Cl)cc(C(=O)O)c2o1` [Compound I-103, 5-((2-chloro-4-((5-cyclopropyl-3-(2,6-dichlorophenyl)isoxazol-4-yl)methoxy)phenyl)ethynyl)-2-methylbenzo[d]oxazole-7-carboxylic acid], in data set [2], the half-maximal effective concentration (EC50) is at most 20 nM and the maximal effect (Emax) is above 100%.
In the same order, the values of `CCc1nc2cc(C#Cc3ccc(OCc4c(-c5c(Cl)cccc5Cl)noc4C4CC4)cc3Cl)cc(C(=O)O)c2o1` [Compound I-104, 5-((2-chloro-4-((5-cyclopropyl-3-(2,6-dichlorophenyl)isoxazol-4-yl)methoxy)phenyl)ethynyl)-2-ethylbenzo[d]oxazole-7-carboxylic acid] are at most 20 nM and 94%.
For `CCCc1nc2cc(C#Cc3ccc(OCc4c(-c5c(Cl)cccc5Cl)noc4C4CC4)cc3Cl)cc(C(=O)O)c2o1` [Compound I-105, 5-((2-chloro-4-((5-cyclopropyl-3-(2,6-dichlorophenyl)isoxazol-4-yl)methoxy)phenyl)ethynyl)-2-propylbenzo[d]oxazole-7-carboxylic acid], in data set [2], the EC50 is at most 20 nM and the maximal effect (Emax) is above 100%.
In the same order, the values of `O=C(O)c1cc(C#Cc2ccc(OCc3c(-c4c(Cl)cccc4Cl)noc3C3CC3)cc2Cl)cc2nc(CO)oc12` [Compound I-107, 5-((2-chloro-4-((5-cyclopropyl-3-(2,6-dichlorophenyl)isoxazol-4-yl)methoxy)phenyl)ethynyl)-2-(hydroxymethyl)benzo[d]oxazole-7-carboxylic acid] are above 1000 nM and above 100%.
For `O=C(O)c1cc(C#Cc2ccc(OCc3c(-c4c(Cl)cccc4Cl)noc3C3CC3)cc2Cl)cc2nccnc12` [Compound I-108, 7-((2-chloro-4-((5-cyclopropyl-3-(2,6-dichlorophenyl)isoxazol-4-yl)methoxy)phenyl)ethynyl)quinoxaline-5-carboxylic acid], in data set [2], the EC50 lay within 20 to 60 nM and the Emax was found to be 98%.
The matching figures for `Cc1nc2cc(C#Cc3ccc(OCc4c(-c5c(Cl)cccc5Cl)noc4C4CC4)cc3Cl)cc(C(=O)O)c2nc1C` [Compound I-109, 7-((2-chloro-4-((5-cyclopropyl-3-(2,6-dichlorophenyl)isoxazol-4-yl)methoxy)phenyl)ethynyl)-2,3-dimethylquinoxaline-5-carboxylic acid]: 20 to 60 nM and 100%.
In the same order, the values of `O=C(O)c1cc(C#Cc2ccc(OCc3c(-c4c(Cl)cccc4Cl)noc3C3CC3)cc2Cl)cc2nc(C3CC3)oc12` [Compound I-110, 5-((2-chloro-4-((5-cyclopropyl-3-(2,6-dichlorophenyl)isoxazol-4-yl)methoxy)phenyl)ethynyl)-2-cyclopropylbenzo[d]oxazole-7-carboxylic acid] are at most 20 nM and 92%.
The matching figures for `CCCCc1nc2cc(C#Cc3ccc(OCc4c(-c5c(Cl)cccc5Cl)noc4C4CC4)cc3Cl)cc(C(=O)O)c2o1` [Compound I-111, 2-butyl-5-((2-chloro-4-((5-cyclopropyl-3-(2,6-dichlorophenyl)isoxazol-4-yl)methoxy)phenyl)ethynyl)benzo[d]oxazole-7-carboxylic acid]: 20 to 60 nM and 98%.
Regarding `CCc1nc2c(C(=O)O)cc(C#Cc3ccc(OCc4c(-c5c(Cl)cccc5Cl)noc4C4CC4)cc3Cl)cc2o1` [Compound I-113, 6-((2-chloro-4-((5-cyclopropyl-3-(2,6-dichlorophenyl)isoxazol-4-yl)methoxy)phenyl)ethynyl)-2-ethylbenzo[d]oxazole-4-carboxylic acid], in data set [2], the concentration for a half-maximal effect (EC50) lay within 20 to 60 nM and the maximum response (Emax) amounted to 96%.
The matching figures for `CCCc1nc2c(C(=O)O)cc(C#Cc3ccc(OCc4c(-c5c(Cl)cccc5Cl)noc4C4CC4)cc3Cl)cc2o1` [Compound I-114, 6 ((2-chloro-((5-cyclopropyl-3-(2,6-dichlorophenyl)isoxazol-4-yl)methoxy)phenyl)ethynyl)-2-propylbenzo[d]oxazole-4-carboxylic acid]: 20 to 60 nM and above 100%.
For `CC(C)c1nc2c(C(=O)O)cc(C#Cc3ccc(OCc4c(-c5c(Cl)cccc5Cl)noc4C4CC4)cc3Cl)cc2o1` [Compound I-115, 6-((2-chloro-4-((5-cyclopropyl-3-(2,6-dichlorophenyl)isoxazol-4-yl)methoxy)phenyl)ethynyl)-2-isopropylbenzo[d]oxazole-4-carboxylic acid], in data set [2], the EC50 is 20 to 60 nM and the maximal response (Emax) is 97%.

The AUC is the area under the concentration-time curve, a measure of exposure. A word on the EC50: it is the concentration giving half of the maximal effect. A word on the Emax: it is the size of the effect at its maximum, as opposed to the concentration needed.
